Experimental data: US12331051B2 (priority 2021, dated 2025)
Read-outs that look alike come from different tables or passages of the source.

Columns and labels:
C57BL/6J mice = test: Chronic variable stress (CVS) mouse model, open field test and splash test; assay type: in vivo; conditions: for CVS induced decrease of time in center of open field: female mice
Method: The “polymorph HT compound” (from Example 1) was tested for its anti-depression/anxiety activity in the chronic variable stress (CVS) mouse model as assessed by a self-grooming splash test and an open field test (OFT) [Strekalova et al., Psychopharmacology (Berl). 2022, 239(3):663-693; Willner, P. Neurobiol Stress, 2017, 6:78-93]. In brief, C57BL/6J mice were subjected to a CVS protocol, consisting of 2 stressors per day for 35 days. Naive mice (not exposed to CVS) are used as a control for CVS-induced depression activity. Following the 35 days CVS, mice were treated with the “E559 polymorph” (FIG. 23) via intraperitoneal injection (IP) as follows: single dose after the last day of CVS (3 mg/kg) or 4 doses (1 mg/kg) applied every 48 hours starting on day 28 of CVS. Saline was used as the vehicle control. The splash test and OFT were performed as previously described in (Aguilar-Valles et al., Nature, 2021, 590, p315-319). […] FIG. 23B represents distance travelled in the open field by female mice treated with E559 polymorph. FIG. 23C represents time spend in the center of the open field of mice in FIG. 23B. […] Horizontal lines represent the mean±standard error of the mean (S.E.M.) and asterisks indicate statistical significances.

5-HT6 = 5-HT6 (Homo sapiens, UniProt P50406); test: Functional assay (cAMP); assay type: cell-based; design: expressed in transfected cells; host or cells: HEK-293
Method: (§1) Neuro-receptor binding and functional effects of the “E559 polymorph” was examined by analyzing binding affinity [Ki (nM)], functional agonist activity [EC50 (nM)], and functional antagonist activity [IC50 (nM)] against a panel of key receptors in neurophysiological disorders. Binding and functional assays were performed at “E559 polymorph” concentrations of 0.0003, 0.003, 0.01, 0.03, 0.1, 0.3, 1, and 10 μM. In binding assays, cell membrane homogenates, expressing each receptor target, were incubated with the corresponding radio-ligand in absence or presence of several concentration of the “E559 polymorph” compound. The measurement of binding affinity of the “E559 polymorph” is represented in TABLE XIII by Ki (nM) which was calculated as percent inhibition of the binding of a radioactively labeled reference ligand at each receptor. In functional assays the HEK-293 cells expressing each receptor target were suspended in buffer and distribute in microplates and incubated for 30 minutes at room temperature or 37° C. in the presence of buffer alone (basal control), the reference agonist or antagonist, or the “E559 polymorph. Following incubation, the cells were lysed and the appropriate fluorescent probe (Ca2+ flux, cAMP, or IP1) were added for 60 minutes to measure the fluorescence transfer at the appropriate wavelength using a microplate reader. The cellular agonist effect (EC50) was calculated as a percent of control response to a known reference agonist and the cellular antagonist effect (IC50) was calculated as a percent inhibition of control reference agonist response for each receptor.
(§2) The functional agonist activity [EC50 (nM), Emax], and functional antagonist activity [IC50 (nM)] of the 5R:8S stereoisomer of the “E559 polymorph” (5R:8S E558) was compared with the “E559 polymorph” (a 5R:8R stereoisomer) at selected serotonin receptors. The assays were performed as described in Example 6.

[1] = target: T1, Serotonin 1B receptor (5-HT1BR) (Homo sapiens, UniProt P28222); test: Functional assay in HEK-293 cells (cAMP); assay type: cell-based
T1 construct: expressed in transfected cells; host or cells: HEK-293
Method: as §1, §2

[2] = target: T2, Serotonin 2B receptor (5-HT2BR) (Homo sapiens, UniProt P41595); test: Functional assay in HEK-293 cells (IP1); assay type: cell-based
T2 construct: expressed in transfected cells; host or cells: HEK-293
Method: as §1, §2

[3] = target: T3, 5-HT2A receptor (5-HT2AR) (Homo sapiens, UniProt P28223); test: Functional assay in HEK-293 cells (IP1); assay type: cell-based
T3 construct: expressed in transfected cells; host or cells: HEK-293
Method: as §1, §2

[4] = Pharmacokinetic study, single IP injection, plasma and brain by LC-MS/MS; assay type: in vivo, CD-1 mice; conditions: IP 0.75, 2.25 or 6.75 mg/kg, male and female mice
Method: A pharmacokinetic (PK) study of the “E559 polymorph” was conducted following a single intraperitoneal (IP) injection in CD-1 mice. PK analysis of the “E559 polymorph” was performed in plasma samples and in brain tissue taken at different time points post injection. Three groups of male mice and three groups of female mice (n=24 per group) were administered “E559” at different doses (0.75, 2.25, or 6.75 mg/kg) by IP injection at time zero. In each dose group, three mice/sex were sacrificed to collect plasma and brain samples at pre-dose, and 0.17, 0.5, 1, 2, 4, 8, and 24 hours post-dose. Levels of the “E559 polymorph” in plasma and brain tissue were assessed by LC-MS/MS method. Briefly, to extract the plasma samples, 200 μL of acetonitrile containing 10 ng/mL LSD-d3 was added to 50 μL of plasma. The mixture was vortexed vigorously, centrifuged (13,000 rpm) for 2 min at 4° C., and then 50 μL of supernatant was combined with 200 μL methanol/water (1:1, v/v) for LC-MS/MS analysis. Brain tissues were weighed and homogenized for ˜1 min in cold acetonitrile at a ratio of 1:1.5 (w/v) brain tissue to extraction solvent. The brain samples were then centrifuged at 13,000 rpm for 2 min at 4° C. and the supernatant was collected for LC-MS/MS analysis. In LC-MS/MS method, isocratic elution was performed on an ACE Excel 5 SuperC18™ column at 25° C., with a run time of 6.5 min. The mobile phase consisted of methanol-water (8:2, v/v) plus 0.1% NH4OH at a flow rate of 0.8 mL/min. The injection volume was 10 μL/sample. […]
The “E559 polymorph” was quantified by selected reaction monitoring of the following mass transitions (2-Br-LSD m/z 403.3→302, LSD-d3 internal standard m/z 327.2→226.1). The quantification of the “E559 polymorph” concentration in samples was achieved by using appropriate calibration standards. […] The pharmacokinetic parameters were determined by the non-compartmental analysis using the validated Phoenix®WinNonlin® version 8.2 software (Certara Inc).

[5] = HEK293, IP1, ligand 5-HT, read-out: Functional Assay (agonist) Emax
[6] = read-out: Funcational Assay (antagonist) IC50, IP1, ligand 5-HT
[7] = read-out: Functional Assay (agonist) EC50, IP1, ligand 5-HT

T1 sequence (P28222 whole entry): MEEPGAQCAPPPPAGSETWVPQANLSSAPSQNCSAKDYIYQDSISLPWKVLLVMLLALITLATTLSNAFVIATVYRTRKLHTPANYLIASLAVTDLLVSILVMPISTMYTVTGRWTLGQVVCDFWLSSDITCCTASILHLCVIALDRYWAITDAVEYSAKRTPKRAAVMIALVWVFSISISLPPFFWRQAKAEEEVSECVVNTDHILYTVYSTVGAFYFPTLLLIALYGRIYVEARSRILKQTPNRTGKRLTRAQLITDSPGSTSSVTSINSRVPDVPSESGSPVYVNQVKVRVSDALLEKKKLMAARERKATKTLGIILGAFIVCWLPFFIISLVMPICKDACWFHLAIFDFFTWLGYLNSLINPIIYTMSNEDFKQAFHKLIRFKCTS
T2 sequence (P41595 whole entry): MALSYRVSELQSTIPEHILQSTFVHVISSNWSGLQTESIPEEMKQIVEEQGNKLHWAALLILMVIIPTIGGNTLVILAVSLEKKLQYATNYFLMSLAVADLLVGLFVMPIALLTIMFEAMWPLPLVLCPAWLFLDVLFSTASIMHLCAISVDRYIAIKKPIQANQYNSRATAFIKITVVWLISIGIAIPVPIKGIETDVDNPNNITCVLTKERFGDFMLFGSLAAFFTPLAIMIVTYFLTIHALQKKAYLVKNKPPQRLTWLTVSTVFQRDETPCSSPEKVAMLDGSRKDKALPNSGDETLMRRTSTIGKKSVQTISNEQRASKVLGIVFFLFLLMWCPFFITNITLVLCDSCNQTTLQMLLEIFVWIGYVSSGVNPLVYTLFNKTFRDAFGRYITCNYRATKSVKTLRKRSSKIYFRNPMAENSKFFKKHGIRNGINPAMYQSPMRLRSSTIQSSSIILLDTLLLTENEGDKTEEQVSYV
T3 sequence (P28223 whole entry): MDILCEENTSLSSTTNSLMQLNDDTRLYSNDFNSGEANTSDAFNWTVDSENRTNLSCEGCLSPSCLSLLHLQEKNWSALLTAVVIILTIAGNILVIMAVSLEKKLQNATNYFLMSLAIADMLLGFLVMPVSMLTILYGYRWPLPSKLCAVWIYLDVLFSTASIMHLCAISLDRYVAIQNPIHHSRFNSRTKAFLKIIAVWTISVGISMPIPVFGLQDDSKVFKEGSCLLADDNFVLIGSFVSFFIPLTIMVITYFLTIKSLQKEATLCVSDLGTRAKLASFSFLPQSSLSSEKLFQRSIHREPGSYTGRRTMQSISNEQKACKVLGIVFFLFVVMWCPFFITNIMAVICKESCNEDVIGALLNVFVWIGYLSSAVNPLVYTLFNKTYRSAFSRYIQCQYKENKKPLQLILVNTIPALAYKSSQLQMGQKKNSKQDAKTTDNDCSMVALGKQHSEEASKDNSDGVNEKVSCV
Sequence of 5-HT6 (P50406 whole entry): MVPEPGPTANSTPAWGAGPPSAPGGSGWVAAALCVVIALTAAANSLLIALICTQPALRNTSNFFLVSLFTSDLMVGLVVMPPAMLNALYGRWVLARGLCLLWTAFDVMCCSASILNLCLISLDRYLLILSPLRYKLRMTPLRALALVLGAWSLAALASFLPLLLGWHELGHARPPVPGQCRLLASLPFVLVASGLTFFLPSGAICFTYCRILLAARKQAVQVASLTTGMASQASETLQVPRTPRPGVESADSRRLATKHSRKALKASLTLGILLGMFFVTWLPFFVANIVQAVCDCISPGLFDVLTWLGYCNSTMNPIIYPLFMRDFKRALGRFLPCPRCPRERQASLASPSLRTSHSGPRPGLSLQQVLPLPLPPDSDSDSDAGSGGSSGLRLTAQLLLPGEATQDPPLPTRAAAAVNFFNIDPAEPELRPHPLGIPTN

CCN(CC)C(=O)[C@@H]1C=C2c3cccc4[nH]c(Br)c(c34)C[C@H]2N(C)C1 [E559, (5R, 8R)-2-Bromo-9,10-didehydro-N,N-diethyl-6-methylergoline-8-carboxamide hemi-D-tartrate]
CVS effect on time in center in OFT, 28 days after the last treatment (C57BL/6J mice; 4×1 mg/kg): remained reversed
locomotion (total distance travelled) in open field, CVS mice (C57BL/6J mice; 4×1 mg/kg): without affecting locomotion
time spent self-grooming in the splash test (C57BL/6J mice; female CVS mice): partially reversed this CVS-induced effect
CVS induced decrease of time in center of open field (C57BL/6J mice; IP 4 doses of 1 mg/kg every 48 hours): fully reversed to the levels seen in the control
CVS induced decrease of time in center of open field (C57BL/6J mice; IP single dose of 3 mg/kg): partially restored the effect of CVS
EC50 (5-HT6): 0.5 nM
Emax (5-HT6; cAMP, ligand 5-HT, read-out: Functional Assay (agonist) Emax): 80.1%
IC50 [1]: > 10000 nM
EC50 ([1]; Functional (Agonist) EC50 (nM), cAMP): 6.69 nM
EC50 ([1]; Functional Assay (agonist) EC50 (nM), cAMP, ligand 5-HT): 6.96 nM
Emax ([1]; HEK293, cAMP, ligand 5-HT, read-out: Functional Assay (agonist) Emax): 100%
EC50 [2]: > 10000 nM
IC50 [2]: 97 nM
Emax [2, 5]: 0%
IC50 [2, 6]: 97 nM
EC50 [2, 7]: > 10000 nM
EC50 [3]: 11 nM
IC50 [3]: 24.9 nM
Emax [3, 5]: 99%
IC50 [3, 6]: 24.9 nM
EC50 [3, 7]: 11 nM
crossing of the blood-brain barrier (brain PK) [4]: can readily cross the blood-brain barrier
plasma levels [4]: increases in time-dependent and dose-dependent manners
time to appearance in plasma post dose [4]: 10 min
